In brackets after ≈: the same amount, converted by molar mass.
How the values were obtained:
[1] = tested on: Candida albicans (ATCC 90028); test: Broth microdilution antifungal assay, Candida albicans; format: cell-based
Experimental: Clinical control strains of Enterococcus faecalis (Gram-positive, ATCC 29212), Staphylococcus aureus (Gram-positive, ATCC 25923), Escherichia coli (Gram-negative, ATCC 25922) and a fungal strain, Candida albicans (ATCC 90028), were obtained from Microbiologics Inc. (St. Cloud, MN, USA) and used for the antimicrobial screening. Bacterial strains were grown on Mueller Hinton II agar (MHA, Becton Dickinson, Franklin Lakes, NJ, USA) slants and Mueller Hinton II broth (MHB, Becton Dickinson, Franklin Lakes, NJ, USA) and the Candida strain on Sabouraud dextrose agar (SDA, Becton Dickinson, Franklin Lakes, NJ, USA) plates. Media were prepared in MilliQ water, according to the manufacturer’s instructions, and autoclaved at 121 °C for 15 min. Prior to the assay, bacterial suspensions were prepared in MHB from fresh slant cultures and incubated at 37 °C for 16–20 h at 100 rpm. The Candida strain was grown on SDA plates at 28 °C for 18–24 h and suspended into sterile 0.9% saline for the assay.
Antimicrobial assays were performed by the broth microdilution method following the guidelines of the Clinical and Laboratory Standards Institute (CLSI) and European Committee on Antimicrobial Susceptibility Testing (EUCAST). Bacterial suspensions were prepared as described above and diluted with MHB to obtain a final inoculum of 5 × 10^5 colony-forming units (CFU)/milliliters in the assay (determined on the basis of absorbance values at 620 nm previously calibrated against plate counts). The Candida suspension was prepared in sterile 0.9% saline solution, and the suspension was diluted in RPMI-1640 media (with L-glutamine, without NaHCO3 and supplemented with 2% glucose and 0.165 M MOPS, buffered to pH 7; Lonza, Basel, Switzerland) to yield a final inoculum of 2.5 × 10^3 CFU/mL in the assay. Assays were carried out in clear 96-well microtiter plates and initiated by dispensing an equal volume of microbial suspension and sample solution diluted into the assay medium. The plates were incubated for 24 h at 37 °C (for Candida, the incubation was at 28 °C for 48 h) with agitation. Absorbance was measured at 620 nm with a plate reader at 0, 4 and 24 h with the bacteria and at 0, 24 and 48 h with Candida. The antimicrobial activity of the samples was calculated from the absorbance values by comparing to untreated controls and expressed as the percentage inhibition of growth. Reference antibiotics were used as positive controls on every assay plate (see Figure 2 for details). […] MIC50 values were determined from the dose-response results by sigmoidal curve fitting with Origin software (OriginLab, Corp., Wellesley Hills, MA, USA).

[2] = tested on: Staphylococcus aureus (ATCC 25923); test: Broth microdilution antimicrobial assay, Staphylococcus aureus; format: cell-based; conditions: for inhibition at 50 µM / MIC90 / MIC50: Staphylococcus aureus; for inhibition at 50 µM / inhibition of growth, primary screen: n = 3, hit threshold >80%, 50 µM; for inhibition at 50 µM: read-out: inhibition of growth, primary screen; for SI (selectivity index): S. aureus MIC50 vs Huh-7 cytotoxicity IC50; for MIC50: sigmoidal curve fitting
Experimental: (§1) Clinical control strains of Enterococcus faecalis (Gram-positive, ATCC 29212), Staphylococcus aureus (Gram-positive, ATCC 25923), Escherichia coli (Gram-negative, ATCC 25922) and a fungal strain, Candida albicans (ATCC 90028), were obtained from Microbiologics Inc. (St. Cloud, MN, USA) and used for the antimicrobial screening. Bacterial strains were grown on Mueller Hinton II agar (MHA, Becton Dickinson, Franklin Lakes, NJ, USA) […] Mueller Hinton II broth (MHB, Becton Dickinson, Franklin Lakes, NJ, USA) and the Candida strain on Sabouraud dextrose agar (SDA, Becton Dickinson, Franklin Lakes, NJ, USA) plates. Media were prepared in MilliQ water, according to the manufacturer's instructions, and autoclaved at 121 °C for 15 min. […] The Candida strain was grown on SDA plates at 28 °C for 18-24 h and suspended into sterile 0.9% saline for the assay. Antimicrobial assays were performed by the broth microdilution method following the guidelines of the Clinical and Laboratory Standards Institute (CLSI) and European Committee on Antimicrobial Susceptibility Testing (EUCAST). […] The Candida suspension was prepared in sterile 0.9% saline solution, and the suspension was diluted in RPMI-1640 media (with L-glutamine, without NaHCO3 and supplemented with 2% glucose and 0.165 M MOPS, buffered to pH 7; Lonza, Basel, Switzerland) to yield a final inoculum of 2.5 × 10^3 CFU/mL in the assay. Assays were carried out in clear 96-well microtiter plates and initiated by dispensing an equal volume of microbial suspension and sample solution diluted into the assay medium. The plates were incubated for 24 h at 37 °C (for Candida, the incubation was at 28 °C for 48 h) with agitation. […] The antimicrobial activity of the samples was calculated from the absorbance values by comparing to untreated controls and expressed as the percentage inhibition of growth. Reference antibiotics were used as positive controls on every assay plate (see Figure 2 for details). […] MIC50 values were determined from the dose-response results by sigmoidal curve fitting with Origin software (OriginLab, Corp., Wellesley Hills, MA, USA).

[3] = tested on: Enterococcus faecalis (ATCC 29212); test: Broth microdilution antimicrobial assay, Enterococcus faecalis; format: cell-based; conditions: for inhibition at 50 µM / inhibition of growth, primary screen: n = 3, hit threshold >80%, 50 µM; for inhibition at 50 µM: read-out: inhibition of growth, primary screen
Experimental: as §1

[4] = tested on: Escherichia coli (ATCC 25922); test: Broth microdilution antimicrobial assay, Escherichia coli; format: cell-based
Experimental: as §1

[5] = Mammalian cell cytotoxicity, ATP assay (CellTiter-Glo); format: cell-based, human; conditions: human, Huh-7 cells, ATP assay, 24 h exposure, average of two dose-response experiments
Experimental: (§2) Huh-7 cells (originating from human hepatocellular carcinoma) were kindly provided by Prof. Ralf Bartenschlager (University of Heidelberg, Heidelberg, Germany). […] The cells were incubated at 37 °C in a humidified atmosphere with 5% CO2. The effect of the most promising compounds on the metabolic activity of Huh-7 hepatocytes was assessed by intracellular ATP quantitation (Promega’s CellTiter-Glo Cell Viability Assay, Madison, WI, USA). In brief, cells were seeded at 20,000 cells/well on white-walled 96-well microplates (ViewPlate, PerkinElmer Inc., Wellesley, MA, USA) and incubated at 37 °C, 5% CO2 and 95% humidity overnight and then exposed to the compounds for 24 h. Following the exposure, cells were washed with 100 µL PBS, and 50 µL of fresh assay media and 50 µL of the CellTiter-Glo reagent were added into the wells. After 2 min of shaking and 10 min incubation at rt, luminometric signal was measured using a Varioskan Flash plate reader (Thermo Fisher Scientific, Vantaa, Finland). […] The IC50 values were calculated by fitting the data into sigmoidal dose-response curves with the Origin software.

Huh-7 cells = test: Mammalian cell cytotoxicity, ATP assay (CellTiter-Glo); format: cell-based, human
Experimental: as §2

[6] = Enterococcus faecalis, ATCC29212, 24 h
[7] = 50 µM, 48 h, n = 3, hit threshold >80%
[8] = ATCC25923, S. aureus ATCC 25923, 24 h
[9] = 50 µM, 24 h, n = 3, hit threshold >80%

Molecule: Nc1nc(/C=C/CNC(=O)c2ccc[nH]2)c[nH]1 [Compound 2a, (E)-N-(3-(2-amino-1H-imidazol-4-yl)allyl)-1H-pyrrole-2-carboxamide]
- inhibition at 50 µM ([1]; Candida albicans, ATCC90028, 50 µM, 48 h, n = 3, hit threshold >80%, read-out: inhibition of growth, primary screen): < 80%
- inhibition at 50 µM ([2]; ATCC25923, 24 h): < 80%
- inhibition at 50 µM [3, 6]: < 80%
- inhibition at 50 µM ([4]; Escherichia coli, ATCC25922, 50 µM, 24 h, n = 3, hit threshold >80%, read-out: inhibition of growth, primary screen): < 80%

Molecule: Nc1nc(/C=C/CNC(=O)c2cc(Br)c(Br)[nH]2)c[nH]1 [Compound 2b, (E)-N-(3-(2-amino-1H-imidazol-4-yl)allyl)-4,5-dibromo-1H-pyrrole-2-carboxamide]
- IC50 at 24 h [5]: > 100 µM
- inhibition of growth, primary screen [1, 7]: inactive
- SI (selectivity index) [2]: >3.3
- MIC90 ([2]; ATCC25923, 24 h): 100 µM
- inhibition at 50 µM ([2]; ATCC25923, 24 h): > 90%
- MIC50 [2, 8]: 30.6 µM (≈ 11.9 µg/mL)
- inhibition at 50 µM [3, 6]: ~50%
- inhibition of growth, primary screen [4, 9]: inactive

Molecule: CC(C)(C)OC(=O)n1cc(-c2cccc(NC(=O)c3cc4cc(Cl)ccc4[nH]3)c2)nc1N [Compound 5i, tert-Butyl 2-amino-4-(3-(5-chloro-1H-indole-2-carboxamido)phenyl)-1H-imidazole-1-carboxylate]
- melting point: 188 to 190 °C
- cytotoxicity at highest tested concentration (Huh-7 cells; 100 µM): non-cytotoxicity
- IC50 at 24 h [5]: > 100 µM
- SI (selectivity index) [2]: >8.6
- MIC90 ([2]; ATCC25923, 24 h): 75 µM
- MIC50 [2, 8]: 11.7 µM (≈ 5.29 µg/mL)

Molecule: Nc1nc(-c2cccc(NC(=O)c3c[nH]c4ccccc34)c2)c[nH]1 [Compound 6e]
- inhibition of growth, primary screen [1, 7]: inactive
- inhibition of growth, primary screen ([2]; 24 h): inactive
- inhibition of growth, primary screen ([3]; 24 h): inactive
- inhibition of growth, primary screen [4, 9]: inactive

Molecule: Cl.Nc1nc(-c2cccc(NC(=O)c3cc4cc(OCc5ccccc5)ccc4[nH]3)c2)c[nH]1 [Compound 6h, 2-Amino-4-(3-(5-(benzyloxy)-1H-indole-2-carboxamido)phenyl)-1H-imidazol-3-ium chloride]
- melting point: 175 to 178 °C
- IC50 at 24 h [5]: 21.2 µM
- inhibition of growth, primary screen [1, 7]: no activity
- inhibition of growth, primary screen ([2]; 24 h): active
- SI (selectivity index) [2]: 2.9
- MIC90 ([2]; ATCC25923, 24 h): 12.5 µM
- MIC90 [2, 8]: 5.7 µg/mL
- MIC50 [2, 8]: 7.3 µM
- inhibition of growth, primary screen ([3]; 24 h): active
- SI (selectivity index) ([3]; E. faecalis MIC50 vs Huh-7 cytotoxicity IC50): 2.7
- MIC90 [3, 6]: 12.5 µM
- MIC90 ([3]; Enterococcus faecalis, ATCC29212, E. faecalis ATCC 29212, 24 h): 5.7 µg/mL
- MIC50 ([3]; Enterococcus faecalis, ATCC29212, E. faecalis ATCC 29212, 24 h, sigmoidal curve fitting): 8 µM
- inhibition of growth, primary screen [4, 9]: active
- SI (selectivity index) ([4]; E. coli MIC50 vs Huh-7 cytotoxicity IC50): 0.7
- MIC90 ([4]; Escherichia coli, ATCC25922, 24 h): 50 µM
- MIC50 ([4]; Escherichia coli, ATCC25922, E. coli ATCC 25922, 24 h, sigmoidal curve fitting): 30.4 µM

Molecule: C[C@@H]1[C@H](O)[C@@H](C)/C=C/C=C/C=C/C=C/C=C/C=C/C=C/[C@H](O[C@@H]2O[C@H](C)[C@@H](O)[C@H](N)[C@@H]2O)C[C@@H]2O[C@](O)(C[C@@H](O)C[C@@H](O)[C@H](O)CC[C@@H](O)C[C@@H](O)CC(=O)O[C@H]1C)C[C@H](O)[C@H]2C(=O)O [amphotericin B, reference compound]
- MIC90 ([1]; Candida albicans, ATCC90028, 48 h): 0.5 µM
- MIC90 ([1]; Candida albicans, ATCC90028, C. albicans ATCC 90028, 48 h): 0.5 µg/mL

Molecule: Polymyxin-B sulfate [reference compound]
- average cytotoxicity (Huh-7 cells; 15,000 IU/mL, positive control, 24 h): 88%

From PMC3944524, “Antimicrobial Activity of the Marine Alkaloids, Clathrodin and Oroidin, and Their Synthetic Analogues” (Marine Drugs, 2014)
